Measurements taken from US20160108049A1 (TAKEDA Gmbh, priority 2011, published 2016).

Legend:
PDE4B1 = target: T1, PDE4B1 (Homo sapiens, UniProt Q07343); experiment: Inhibition of PDE4 activity (PDE4B1, SPA assay); format: biochemical; conditions: recombinant PDE4B1, 0.5 μM cAMP; read-out: PDE4B1 Inhibitory values measured as -logIC50 (converted)
T1 construct: made in house; host or cells: SF21 insect cells (baculovirus; virus made in SF9 cells, pCR-Bac vector)
How it was run: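 Read-out is SPA yttrium silicate bead scintillation after IBMX-containing beads stop the reaction. Insect-cell (SF21) lysate enzyme hydrolysed 0.5 μM [3H]cAMP at pH 7.4 with 5 mM Mg2+ for 15 min after a 5 min 37 °C preincubation; IC50 fitted by non-linear regression.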

human PDE5 = target: T2, human PDE5 (Homo sapiens, UniProt O76074); experiment: Inhibition of PDE5 activity (platelet lysate, SPA assay); format: biochemical; conditions: 0.5 μM cGMP, read-out: PDE5 Inhibitory values measured as -logIC50 (converted)
T2 construct: from tissue; host or cells: human platelets from fresh donor blood (platelet lysate)
How it was run: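 SPA readout of [3H]cGMP hydrolysis (0.5 μM, 15 min, 37 °C after 5 min preincubation), stopped with yttrium silicate beads containing IBMX. Enzyme was lysate from human platelets, used at 10–20% substrate turnover, with PDE3 (motapizone 1 μM) and PDE2 (10 nM) blockers present. IC50 values fitted non-linearly from concentration-effect curves.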

T1 sequence (Q07343 whole entry): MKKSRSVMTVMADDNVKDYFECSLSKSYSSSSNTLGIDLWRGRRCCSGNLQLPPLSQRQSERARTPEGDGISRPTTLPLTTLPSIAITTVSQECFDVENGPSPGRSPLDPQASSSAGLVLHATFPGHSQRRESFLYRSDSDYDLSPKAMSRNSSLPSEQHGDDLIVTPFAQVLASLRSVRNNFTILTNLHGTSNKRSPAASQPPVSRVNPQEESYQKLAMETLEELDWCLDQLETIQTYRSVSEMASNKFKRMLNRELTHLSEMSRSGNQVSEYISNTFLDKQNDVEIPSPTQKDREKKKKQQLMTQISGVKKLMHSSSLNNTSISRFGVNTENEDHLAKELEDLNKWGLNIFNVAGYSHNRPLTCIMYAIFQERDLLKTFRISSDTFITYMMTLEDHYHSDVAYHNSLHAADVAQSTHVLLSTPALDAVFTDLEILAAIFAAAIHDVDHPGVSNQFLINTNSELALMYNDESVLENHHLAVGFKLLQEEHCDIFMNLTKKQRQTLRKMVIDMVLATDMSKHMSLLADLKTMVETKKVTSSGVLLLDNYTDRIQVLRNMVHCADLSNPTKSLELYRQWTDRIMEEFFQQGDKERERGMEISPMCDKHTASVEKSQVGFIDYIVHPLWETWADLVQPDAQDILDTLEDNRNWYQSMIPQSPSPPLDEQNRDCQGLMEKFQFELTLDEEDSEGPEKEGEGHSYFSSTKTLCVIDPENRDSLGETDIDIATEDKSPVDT

| IC50 (PDE4B1) | IC50 (human PDE5) | SMILES |
| --- | --- | --- |
| 1 to 10 nM | < 1 nM | COc1ccc(C2=NN(C3CCN(C(=O)[C@@H](Cc4ccccc4)NC(=O)c4c(C)[nH]c5c(-c6c(OCC7CC7)ccc7c6OCO7)ncnc45)CC3)C(=O)[C@@H]3CCCC[C@H]23)cc1OC [Example 26, 4-[5-(cyclopropylmethoxy)-1,3-benzodioxol-4-yl]-N-[(2R)-1-{4-[(4aS,8aR)-4-(3,4-dimethoxyphenyl)-1-oxo-4a,5,6,7,8,8a-hexahydrophthalazin-2(1H)-yl]piperidin-1-yl}-1-oxo-3-phenylpropan-2-yl]-6-methyl-5H-pyrrolo[3,2-d]pyrimidine-7-carboxamide] |
| 1 to 10 nM | < 1 nM | COc1ccc(C2=NN(C3CCN(C(=O)[C@@H](Cc4ccc(Cl)cc4)NC(=O)c4c[nH]c5c(-c6c(OCC7CC7)ccc7c6OCO7)ncnc45)CC3)C(=O)[C@@H]3CCCC[C@H]23)cc1OC [Example 27, N-[(2R)-3-(4-chlorophenyl)-1-{4-[(4aS,8aR)-4-(3,4-dimethoxyphenyl)-1-oxo-4a,5,6,7,8,8a-hexahydrophthalazin-2(1H)-yl]piperidin-1-yl}-1-oxopropan-2-yl]-4-[5-(cyclopropylmethoxy)-1,3-benzodioxol-4-yl]-5H-pyrrolo[3,2-d]pyrimidine-7-carboxamide] |
| < 1 nM | < 1 nM | COc1ccc(C2=NN(C3CCN(C(=O)[C@@H](Cc4ccc(F)cc4)NC(=O)c4c[nH]c5c(-c6c(OCC7CC7)ccc7c6OCO7)ncnc45)CC3)C(=O)[C@@H]3CCCC[C@H]23)cc1OC [Example 28, 4-[5-(cyclopropylmethoxy)-1,3-benzodioxol-4-yl]-N-[(2R)-1-{4-[(4aS,8aR)-4-(3,4-dimethoxyphenyl)-1-oxo-4a,5,6,7,8,8a-hexahydrophthalazin-2(1H)-yl]piperidin-1-yl}-3-(4-fluorophenyl)-1-oxopropan-2-yl]-5H-pyrrolo[3,2-d]pyrimidine-7-carboxamide] |
| 1 to 10 nM | < 1 nM | COc1ccc(C[C@@H](NC(=O)c2c[nH]c3c(-c4c(OCC5CC5)ccc5c4OCO5)ncnc23)C(=O)N2CCC(N3N=C(c4ccc(OC)c(OC)c4)[C@H]4CCCC[C@H]4C3=O)CC2)cc1 [Example 29, 4-[5-(cyclopropylmethoxy)-1,3-benzodioxol-4-yl]-N-[(2R)-1-{4-[(4aS,8aR)-4-(3,4-dimethoxyphenyl)-1-oxo-4a,5,6,7,8,8a-hexahydrophthalazin-2(1H)-yl]piperidin-1-yl}-3-(4-methoxyphenyl)-1-oxopropan-2-yl]-5H-pyrrolo[3,2-d]pyrimidine-7-carboxamide] |
| 1 to 10 nM | 1 to 10 nM | COc1ccc(C2=NN(C3CCN(C(=O)[C@@H](Cc4cccc(Cl)c4)NC(=O)c4c[nH]c5c(-c6c(OCC7CC7)ccc7c6OCO7)ncnc45)CC3)C(=O)[C@@H]3CCCC[C@H]23)cc1OC [Example 30, N-[(2R)-3-(3-chlorophenyl)-1-{4-[(4aS,8aR)-4-(3,4-dimethoxyphenyl)-1-oxo-4a,5,6,7,8,8a-hexahydrophthalazin-2(1H)-yl]piperidin-1-yl}-1-oxopropan-2-yl]-4-[5-(cyclopropylmethoxy)-1,3-benzodioxol-4-yl]-5H-pyrrolo[3,2-d]pyrimidine-7-carboxamide] |
| 1 to 10 nM | < 1 nM | COc1ccc(C2=NN(C3CCN(C(=O)[C@@H](Cc4ccccc4)NC(=O)c4c[nH]c5c(-c6c(OCC7CC7)ccc7c6OCO7)ncnc45)CC3)C(=O)[C@@H]3CCCC[C@H]23)cc1OC [Example 31, 4-[5-(cyclopropylmethoxy)-1,3-benzodioxol-4-yl]-N-[(2R)-1-{4-[(4aS,8aR)-4-(3,4-dimethoxyphenyl)-1-oxo-4a,5,6,7,8,8a-hexahydrophthalazin-2(1H)-yl]piperidin-1-yl}-1-oxo-3-phenylpropan-2-yl]-5H-pyrrolo[3,2-d]pyrimidine-7-carboxamide] |
| 1 to 10 nM | 1 to 10 nM | COc1ccc(C2=NN(C3CCN(C(=O)[C@@H](Cc4ccccc4C(F)(F)F)NC(=O)c4c(C)[nH]c5c(-c6c(OCC7CC7)ccc7c6OCO7)ncnc45)CC3)C(=O)[C@@H]3CCCC[C@H]23)cc1OC [Example 32, 4-[5-(cyclopropylmethoxy)-1,3-benzodioxol-4-yl]-N-{(2R)-1-{4-[(4aS,8aR)-4-(3,4-dimethoxyphenyl)-1-oxo-4a,5,6,7,8,8a-hexahydrophthalazin-2(1H)-yl]piperidin-1-yl}-1-oxo-3-[2-(trifluoromethyl)phenyl]propan-2-yl}-6-methyl-5H-pyrrolo[3,2-d]pyrimidine-7-carboxamide] |
| 1 to 10 nM | < 1 nM | COc1ccc(C2=NN(C3CCN(C(=O)[C@@H](Cc4ccccc4C(F)(F)F)NC(=O)c4c[nH]c5c(-c6c(OCC7CC7)ccc7c6OCO7)ncnc45)CC3)C(=O)[C@@H]3CCCC[C@H]23)cc1OC [Example 33, 4-[5-(cyclopropylmethoxy)-1,3-benzodioxol-4-yl]-N-{(2R)-1-{4-[(4aS,8aR)-4-(3,4-dimethoxyphenyl)-1-oxo-4a,5,6,7,8,8a-hexahydrophthalazin-2(1H)-yl]piperidin-1-yl}-1-oxo-3-[2-(trifluoromethyl)phenyl]propan-2-yl}-5H-pyrrolo[3,2-d]pyrimidine-7-carboxamide] |
| < 1 nM | < 1 nM | COc1ccc(C2=NN(C3CCN(C(=O)[C@@H](Cc4ccccc4Cl)NC(=O)c4c(C)[nH]c5c(-c6c(OCC7CC7)ccc7c6OCO7)ncnc45)CC3)C(=O)[C@@H]3CCCC[C@H]23)cc1OC [Example 34, N-[(2R)-3-(2-chlorophenyl)-1-{4-[(4aS,8aR)-4-(3,4-dimethoxyphenyl)-1-oxo-4a,5,6,7,8,8a-hexahydrophthalazin-2(1H)-yl]piperidin-1-yl}-1-oxopropan-2-yl]-4-[5-(cyclopropylmethoxy)-1,3-benzodioxol-4-yl]-6-methyl-5H-pyrrolo[3,2-d]pyrimidine-7-carboxamide] |
| < 1 nM | < 1 nM | COc1ccc(C2=NN(C3CCN(C(=O)[C@@H](Cc4ccccc4Cl)NC(=O)c4c[nH]c5c(-c6c(OCC7CC7)ccc7c6OCO7)ncnc45)CC3)C(=O)[C@@H]3CCCC[C@H]23)cc1OC [Example 35, N-[(2R)-3-(2-chlorophenyl)-1-{4-[(4aS,8aR)-4-(3,4-dimethoxyphenyl)-1-oxo-4a,5,6,7,8,8a-hexahydrophthalazin-2(1H)-yl]piperidin-1-yl}-1-oxopropan-2-yl]-4-[5-(cyclopropylmethoxy)-1,3-benzodioxol-4-yl]-5H-pyrrolo[3,2-d]pyrimidine-7-carboxamide] |
| 1 to 10 nM | 1 to 10 nM | COc1ccc(C2=NN(C3CCN(C(=O)[C@H](Cc4ccccc4)NC(=O)c4c[nH]c5c(-c6c(OCC7CC7)ccc7c6OCO7)ncnc45)CC3)C(=O)[C@@H]3CCCC[C@H]23)cc1OC [Example 36, 4-[5-(cyclopropylmethoxy)-1,3-benzodioxol-4-yl]-N-[(2S)-1-{4-[(4aS,8aR)-4-(3,4-dimethoxyphenyl)-1-oxo-4a,5,6,7,8,8a-hexahydrophthalazin-2(1H)-yl]piperidin-1-yl}-1-oxo-3-phenylpropan-2-yl]-5H-pyrrolo[3,2-d]pyrimidine-7-carboxamide] |
| 1 to 10 nM | 1 to 10 nM | COc1cc(OCC2CC2)c(-c2ncnc3c(C(=O)N[C@@H](C(=O)N4CCC(N5N=C(c6ccc(OC)c(OC)c6)[C@H]6CCCC[C@H]6C5=O)CC4)[C@H](C)c4ccccc4)c(C)[nH]c23)cc1F [Example 37, 4-[2-(cyclopropylmethoxy)-5-fluoro-4-methoxyphenyl]-N-[(2R,3R)-1-{4-[(4aS,8aR)-4-(3,4-dimethoxyphenyl)-1-oxo-4a,5,6,7,8,8a-hexahydrophthalazin-2(1H)-yl]piperidin-1-yl}-1-oxo-3-phenylbutan-2-yl]-6-methyl-5H-pyrrolo[3,2-d]pyrimidine-7-carboxamide] |
| 1 to 10 nM | < 1 nM | COc1ccc(C2=NN(C3CCN(C(=O)[C@H](Cc4ccccn4)NC(=O)c4c(C)[nH]c5c(-c6c(OCC7CC7)ccc7c6OCO7)ncnc45)CC3)C(=O)[C@@H]3CCCC[C@H]23)cc1OC [Example 38, 4-[5-(cyclopropylmethoxy)-1,3-benzodioxol-4-yl]-N-[(2S)-1-{4-[(4aS,8aR)-4-(3,4-dimethoxyphenyl)-1-oxo-4a,5,6,7,8,8a-hexahydrophthalazin-2(1H)-yl]piperidin-1-yl}-1-oxo-3-(pyridin-2-yl)propan-2-yl]-6-methyl-5H-pyrrolo[3,2-d]pyrimidine-7-carboxamide] |
| < 1 nM | < 1 nM | COc1ccc(C2=NN(C3CCN(C(=O)[C@H](Cc4ccccn4)NC(=O)c4c[nH]c5c(-c6c(OCC7CC7)ccc7c6OCO7)ncnc45)CC3)C(=O)[C@@H]3CCCC[C@H]23)cc1OC [Example 39, 4-[5-(cyclopropylmethoxy)-1,3-benzodioxol-4-yl]-N-[(2S)-1-{4-[(4aS,8aR)-4-(3,4-dimethoxyphenyl)-1-oxo-4a,5,6,7,8,8a-hexahydrophthalazin-2(1H)-yl]piperidin-1-yl}-1-oxo-3-(pyridin-2-yl)propan-2-yl]-5H-pyrrolo[3,2-d]pyrimidine-7-carboxamide] |
| 1 to 10 nM | < 1 nM | COc1ccc(C2=NN(C3CCN(C(=O)[C@H](Cc4ccncc4)NC(=O)c4c(C)[nH]c5c(-c6c(OCC7CC7)ccc7c6OCO7)ncnc45)CC3)C(=O)[C@@H]3CCCC[C@H]23)cc1OC [Example 40, 4-[5-(cyclopropylmethoxy)-1,3-benzodioxol-4-yl]-N-[(2S)-1-{4-[(4aS,8aR)-4-(3,4-dimethoxyphenyl)-1-oxo-4a,5,6,7,8,8a-hexahydrophthalazin-2(1H)-yl]piperidin-1-yl}-1-oxo-3-(pyridin-4-yl)propan-2-yl]-6-methyl-5H-pyrrolo[3,2-d]pyrimidine-7-carboxamide] |
